Assay results from publication PMC4990249, “Mitochondrial Probe Methyltriphenylphosphonium (TPMP) Inhibits the Krebs Cycle Enzyme 2-Oxoglutarate Dehydrogenase” (PLoS ONE, 2016).
pIC50: −log10 of the molar value.

Legend:
[1] = molecular target: T1, 2-oxoglutarate dehydrogenase complex (OGDHC) (Rattus norvegicus, UniProt Q01205+Q5XI78+Q6P6R2); experiment: spectrophotometric OGDHC activity (A340) at […] compound in muscle homogenate; format: cell-based; parameters: gene Ogdh; native complex in rat skeletal muscle homogenate enriched in mitochondrial fraction; with E2 and E3 components of the complex; conditions: read-out: % of control activity at 1 mM
T1 sequence (Q5XI78 41-1023): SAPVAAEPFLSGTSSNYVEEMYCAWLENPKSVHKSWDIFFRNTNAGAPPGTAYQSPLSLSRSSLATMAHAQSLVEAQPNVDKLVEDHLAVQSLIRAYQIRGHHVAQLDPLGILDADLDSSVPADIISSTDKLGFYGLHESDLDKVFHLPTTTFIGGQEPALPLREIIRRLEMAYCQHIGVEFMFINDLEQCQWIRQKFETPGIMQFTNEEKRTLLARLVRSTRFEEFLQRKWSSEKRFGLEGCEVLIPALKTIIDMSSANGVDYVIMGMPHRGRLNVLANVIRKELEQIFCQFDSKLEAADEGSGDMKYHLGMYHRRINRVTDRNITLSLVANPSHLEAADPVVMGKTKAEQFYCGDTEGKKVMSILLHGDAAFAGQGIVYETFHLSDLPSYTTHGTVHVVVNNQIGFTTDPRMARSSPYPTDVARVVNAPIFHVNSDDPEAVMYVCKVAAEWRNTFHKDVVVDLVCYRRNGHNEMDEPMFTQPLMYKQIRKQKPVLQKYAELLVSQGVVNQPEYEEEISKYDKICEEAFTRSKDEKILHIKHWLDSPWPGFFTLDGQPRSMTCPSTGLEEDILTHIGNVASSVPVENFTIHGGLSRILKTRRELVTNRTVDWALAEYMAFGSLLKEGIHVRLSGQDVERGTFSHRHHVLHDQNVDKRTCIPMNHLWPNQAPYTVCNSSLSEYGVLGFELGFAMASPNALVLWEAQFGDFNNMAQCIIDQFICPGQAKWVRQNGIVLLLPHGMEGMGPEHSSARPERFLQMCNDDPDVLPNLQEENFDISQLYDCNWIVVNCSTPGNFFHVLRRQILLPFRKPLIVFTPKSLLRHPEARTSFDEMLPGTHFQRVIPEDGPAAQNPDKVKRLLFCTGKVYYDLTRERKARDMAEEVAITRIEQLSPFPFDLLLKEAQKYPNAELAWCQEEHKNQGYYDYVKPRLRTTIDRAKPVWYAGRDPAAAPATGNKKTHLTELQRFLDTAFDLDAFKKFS
T1 sequence (Q01205 69-454): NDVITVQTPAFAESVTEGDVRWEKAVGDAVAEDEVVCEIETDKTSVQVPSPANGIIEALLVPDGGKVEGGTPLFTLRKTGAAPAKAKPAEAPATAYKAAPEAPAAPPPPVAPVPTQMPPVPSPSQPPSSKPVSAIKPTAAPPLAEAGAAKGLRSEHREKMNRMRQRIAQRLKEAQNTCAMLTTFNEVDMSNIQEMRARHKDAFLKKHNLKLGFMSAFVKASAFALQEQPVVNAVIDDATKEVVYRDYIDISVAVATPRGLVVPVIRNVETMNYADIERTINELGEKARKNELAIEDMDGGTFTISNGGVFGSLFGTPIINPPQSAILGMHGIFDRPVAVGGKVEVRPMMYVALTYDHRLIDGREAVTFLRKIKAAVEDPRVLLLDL
T1 sequence (Q6P6R2 36-509): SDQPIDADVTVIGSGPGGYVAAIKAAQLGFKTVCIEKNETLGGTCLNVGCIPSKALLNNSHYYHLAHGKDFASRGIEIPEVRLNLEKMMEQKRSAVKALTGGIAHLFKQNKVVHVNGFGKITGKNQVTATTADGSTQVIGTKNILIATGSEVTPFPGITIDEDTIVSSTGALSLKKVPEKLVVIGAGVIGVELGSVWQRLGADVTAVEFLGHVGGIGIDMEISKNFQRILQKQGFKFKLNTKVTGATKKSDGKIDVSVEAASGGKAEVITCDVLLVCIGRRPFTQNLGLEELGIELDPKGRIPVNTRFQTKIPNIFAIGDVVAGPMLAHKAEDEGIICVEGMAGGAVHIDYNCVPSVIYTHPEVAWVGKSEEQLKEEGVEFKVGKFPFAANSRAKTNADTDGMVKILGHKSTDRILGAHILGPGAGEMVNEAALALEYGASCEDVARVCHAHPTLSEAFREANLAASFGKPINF

[2] = molecular target: T1, 2-oxoglutarate dehydrogenase complex (OGDHC); experiment: biochemical; parameters: gene Ogdh
[3] = molecular target: T2, 2-oxoglutarate dehydrogenase complex (OGDHC) (Sus scrofa, UniProt K9IVI1+P09623+Q9N0F1); experiment: Michaelis-Menten kinetics of purified complex, NADH absorbance at […] nm, […] TPMP; format: biochemical
T2 construct: gene OGDH; purified OGDHC enzyme (Sigma K1502), intact complex; with E2 component (dihydrolipoyl transsuccinylase) and E3 component (dihydrolipoyl dehydrogenase) of the complex
T2 sequence (K9IVI1 41-1023): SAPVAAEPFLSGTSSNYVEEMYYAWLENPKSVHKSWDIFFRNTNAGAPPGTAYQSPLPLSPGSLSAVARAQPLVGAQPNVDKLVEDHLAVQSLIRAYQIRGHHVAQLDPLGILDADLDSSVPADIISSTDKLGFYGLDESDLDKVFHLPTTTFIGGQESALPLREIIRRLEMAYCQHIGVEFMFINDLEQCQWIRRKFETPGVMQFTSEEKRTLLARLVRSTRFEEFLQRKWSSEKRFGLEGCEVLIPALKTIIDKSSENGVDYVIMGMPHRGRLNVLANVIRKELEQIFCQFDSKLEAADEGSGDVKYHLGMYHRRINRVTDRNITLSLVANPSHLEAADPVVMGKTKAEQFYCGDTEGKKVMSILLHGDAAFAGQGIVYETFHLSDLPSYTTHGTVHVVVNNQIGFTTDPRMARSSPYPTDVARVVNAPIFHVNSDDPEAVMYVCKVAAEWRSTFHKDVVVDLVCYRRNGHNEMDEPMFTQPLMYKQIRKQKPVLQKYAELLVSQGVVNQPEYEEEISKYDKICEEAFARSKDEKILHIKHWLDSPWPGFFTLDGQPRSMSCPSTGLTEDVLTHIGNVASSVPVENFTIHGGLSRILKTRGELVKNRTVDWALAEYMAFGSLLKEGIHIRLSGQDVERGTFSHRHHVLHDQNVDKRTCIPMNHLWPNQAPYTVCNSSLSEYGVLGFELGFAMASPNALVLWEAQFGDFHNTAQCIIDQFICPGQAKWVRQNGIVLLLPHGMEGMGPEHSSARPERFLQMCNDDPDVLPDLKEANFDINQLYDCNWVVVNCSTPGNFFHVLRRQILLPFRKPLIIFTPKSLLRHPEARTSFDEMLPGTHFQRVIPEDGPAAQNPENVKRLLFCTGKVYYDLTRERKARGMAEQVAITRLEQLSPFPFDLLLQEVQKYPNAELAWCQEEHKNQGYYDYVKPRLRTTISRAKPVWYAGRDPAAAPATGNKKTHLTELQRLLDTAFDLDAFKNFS
T2 sequence (Q9N0F1 69-455): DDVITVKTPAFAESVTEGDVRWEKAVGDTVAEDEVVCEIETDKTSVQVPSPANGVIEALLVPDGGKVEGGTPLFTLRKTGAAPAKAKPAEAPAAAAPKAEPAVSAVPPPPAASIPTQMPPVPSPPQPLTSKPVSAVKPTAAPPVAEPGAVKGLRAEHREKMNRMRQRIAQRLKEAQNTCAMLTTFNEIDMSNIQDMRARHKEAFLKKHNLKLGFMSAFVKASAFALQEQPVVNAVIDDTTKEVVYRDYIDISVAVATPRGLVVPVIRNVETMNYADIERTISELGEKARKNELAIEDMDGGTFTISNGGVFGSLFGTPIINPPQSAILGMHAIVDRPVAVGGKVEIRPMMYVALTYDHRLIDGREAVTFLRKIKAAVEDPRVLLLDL
T2 sequence (P09623 36-509): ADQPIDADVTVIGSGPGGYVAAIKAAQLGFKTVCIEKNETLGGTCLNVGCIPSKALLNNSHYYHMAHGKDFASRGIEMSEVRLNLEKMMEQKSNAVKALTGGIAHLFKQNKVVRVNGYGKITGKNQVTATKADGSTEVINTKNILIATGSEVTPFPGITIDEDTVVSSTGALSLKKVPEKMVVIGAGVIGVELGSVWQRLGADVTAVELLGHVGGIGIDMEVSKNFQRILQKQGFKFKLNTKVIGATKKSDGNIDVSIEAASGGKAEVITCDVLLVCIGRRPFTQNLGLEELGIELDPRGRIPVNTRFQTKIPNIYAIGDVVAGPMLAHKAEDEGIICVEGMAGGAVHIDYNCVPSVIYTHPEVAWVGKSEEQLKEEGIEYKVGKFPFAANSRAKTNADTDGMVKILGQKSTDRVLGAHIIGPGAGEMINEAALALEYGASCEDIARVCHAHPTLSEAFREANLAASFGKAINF

## CCCCC[P+](c1ccccc1)(c1ccccc1)c1ccccc1 [Pentyl, pentyltriphenylphosphonium]
[1]
  remaining activity at 1000 µM: 15.9%

## CCC[P+](c1ccccc1)(c1ccccc1)c1ccccc1 [Propyl, propyltriphenylphosphonium]
[1]
  remaining activity at 1000 µM: 60.7%

## C[P+](c1ccccc1)(c1ccccc1)c1ccccc1 [TPMP, Methyltriphenylphosphonium]
[2]
  pIC50: 2.41
[3]
  Michaelis-Menten kinetics of purified complex, NADH absorbance at 340 nm, 0-5 mM: The pattern of decreasing Vmax and increasing Km fits in a mixed-inhibition model.
